From ChEMBL document CHEMBL4118122, “Identification and biological evaluation of thiazole-based inverse agonists of RORγt” (Bioorg Med Chem Lett, 2018)
In brackets after ≈: the same amount, converted by molar mass.

Legend:
PXR (NR1I2) [1] = target: T1, PXR (NR1I2) (Homo sapiens, UniProt O75469); test: […] at PXR LBD (unknown origin) expressed in HEK293 cells […] at 1 uM after 16 hrs by luciferase reporter gene assay relative to rifampicin; type: ADME, cell-based; details: HEK293 cells expressing PXR LBD, read-out: Efficacy
T1 sequence (O75469 whole entry): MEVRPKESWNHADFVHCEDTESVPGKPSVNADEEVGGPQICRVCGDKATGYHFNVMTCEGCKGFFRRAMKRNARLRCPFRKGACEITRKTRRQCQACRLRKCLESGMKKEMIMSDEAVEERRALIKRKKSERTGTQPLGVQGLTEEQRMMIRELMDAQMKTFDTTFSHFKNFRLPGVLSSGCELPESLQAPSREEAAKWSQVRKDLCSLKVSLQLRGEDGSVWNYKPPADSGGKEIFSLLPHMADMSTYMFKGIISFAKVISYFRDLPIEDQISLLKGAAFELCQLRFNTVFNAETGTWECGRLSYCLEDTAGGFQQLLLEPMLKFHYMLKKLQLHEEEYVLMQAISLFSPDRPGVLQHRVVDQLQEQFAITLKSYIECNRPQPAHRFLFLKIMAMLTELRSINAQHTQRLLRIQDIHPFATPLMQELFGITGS

[2] = Thermodynamic solubility of the compound in 30 mM phosphate buffer at 10 mM at pH 7 after 2 to 5 days by UV-HPLC analysis; type: physicochemical; details: read-out: Therm_solubility
[3] = Thermodynamic solubility of the compound in fasted state simulated intestinal […] after 2 to 5 days by UV-HPLC analysis; type: physicochemical; details: read-out: Therm_solubility
PXR (NR1I2) [4] = target: T1, PXR (NR1I2); test: […] at PXR LBD (unknown origin) expressed in HEK293 cells […] at 10 uM after 16 hrs by luciferase reporter gene assay relative to rifampicin; type: ADME, cell-based; details: HEK293 cells expressing PXR LBD, read-out: Efficacy
[5] = Half life in rat microsomes; type: ADME, Microsome
[6] = Half life in human microsomes; type: ADME, Microsome
Cytochrome P450 1A2 = target: T2, Cytochrome P450 1A2 (Homo sapiens, UniProt P05177); test: Inhibition of CYP1A2 (unknown origin); type: ADME
T2 sequence (P05177 whole entry): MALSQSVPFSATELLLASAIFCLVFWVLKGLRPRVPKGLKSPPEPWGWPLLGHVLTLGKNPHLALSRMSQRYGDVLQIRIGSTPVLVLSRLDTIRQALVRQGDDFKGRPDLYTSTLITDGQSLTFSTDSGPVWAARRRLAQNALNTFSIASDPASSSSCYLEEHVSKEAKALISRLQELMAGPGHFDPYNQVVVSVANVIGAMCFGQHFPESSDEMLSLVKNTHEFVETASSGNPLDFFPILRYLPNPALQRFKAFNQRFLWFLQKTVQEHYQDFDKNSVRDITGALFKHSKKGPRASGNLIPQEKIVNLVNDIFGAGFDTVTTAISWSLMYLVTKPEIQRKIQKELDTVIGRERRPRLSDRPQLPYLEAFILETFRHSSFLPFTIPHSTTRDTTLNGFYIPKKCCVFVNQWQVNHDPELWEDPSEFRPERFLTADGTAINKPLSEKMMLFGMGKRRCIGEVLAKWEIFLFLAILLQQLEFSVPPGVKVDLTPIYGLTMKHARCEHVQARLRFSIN

Cytochrome P450 2C19 = Cytochrome P450 2C19 (Homo sapiens, UniProt P33261); test: Inhibition of CYP2C19 (unknown origin); type: ADME
Cytochrome P450 2C8 = target: T3, Cytochrome P450 2C8 (Homo sapiens, UniProt P10632); test: Inhibition of CYP2C8 (unknown origin); type: ADME
T3 sequence (P10632 whole entry): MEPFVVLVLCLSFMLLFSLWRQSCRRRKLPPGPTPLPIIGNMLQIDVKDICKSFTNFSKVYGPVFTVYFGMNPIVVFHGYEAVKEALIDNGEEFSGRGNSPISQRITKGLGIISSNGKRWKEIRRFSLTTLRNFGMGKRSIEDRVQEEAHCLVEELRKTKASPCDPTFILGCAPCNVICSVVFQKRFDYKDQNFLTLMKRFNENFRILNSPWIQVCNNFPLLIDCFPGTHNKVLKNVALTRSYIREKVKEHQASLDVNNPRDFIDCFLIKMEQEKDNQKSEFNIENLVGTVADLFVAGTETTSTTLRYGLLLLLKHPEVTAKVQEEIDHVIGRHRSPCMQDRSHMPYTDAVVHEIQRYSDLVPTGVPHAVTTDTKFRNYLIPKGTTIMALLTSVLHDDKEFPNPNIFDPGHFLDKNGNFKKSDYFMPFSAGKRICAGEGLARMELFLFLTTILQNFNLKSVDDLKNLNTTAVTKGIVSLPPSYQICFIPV

Cytochrome P450 2C9 = Cytochrome P450 2C9 (Homo sapiens, UniProt P11712); test: Inhibition of CYP2C9 (unknown origin); type: ADME
Cytochrome P450 2D6 = Cytochrome P450 2D6 (Homo sapiens, UniProt P10635); test: Inhibition of CYP2D6 (unknown origin); type: ADME
Cytochrome P450 3A4 = Cytochrome P450 3A4 (Homo sapiens, UniProt P08684); test: Inhibition of CYP3A4 (unknown origin); type: ADME
[7] = Clearance in Sprague-Dawley rat at 0.5 mg/kg, iv; type: ADME, organism-based; details: in vivo
[8] = Volume of distribution at steady state in Sprague-Dawley rat at 0.5 mg/kg, iv; type: ADME, organism-based; details: in vivo, read-out: Vdss
[9] = (§1) AUC (0 to infinity) in Sprague-Dawley rat at 0.5 mg/kg, iv; type: ADME, organism-based; set-up: dose 0.5 mg/kg, route intravenous, time infinity; details: Sprague-Dawley, in vivo
[10] = Initial plasma concentration in Sprague-Dawley rat at 0.5 mg/kg, iv; type: ADME, organism-based
[11] = Half life in Sprague-Dawley rat at 0.5 mg/kg, iv; type: ADME, organism-based; details: in vivo
[12] = Cmax in Sprague-Dawley rat at 2.5 mg/kg, po; type: ADME, organism-based; set-up: dose 2.5 mg/kg, route oral; details: in vivo
[13] = Tmax in Sprague-Dawley rat at 2.5 mg/kg, po; type: ADME, organism-based; details: in vivo
[14] = AUC (0 to infinity) in Sprague-Dawley rat at 2.5 mg/kg, po; type: ADME, organism-based; set-up: dose 2.5 mg/kg, time infinity, route oral; details: in vivo
[15] = Terminal half life in Sprague-Dawley rat at 2.5 mg/kg, po; type: ADME, organism-based; details: in vivo, read-out: beta t1/2 (converted)
[16] = Oral bioavailability in Sprague-Dawley rat at 2.5 mg/kg; type: ADME, organism-based; details: in vivo
[17] = Glutathione reactivity assessed as GSH adduct formation; type: physicochemical
Rattus norvegicus = test: as §1; type: ADME, organism-based; set-up: dose 0.5 mg/kg, route intravenous, time infinity; details: in vivo
[18] = target: Voltage-gated inwardly rectifying potassium channel KCNH2 (Homo sapiens, UniProt Q12809); test: Inhibition of human ERG
Chain of Voltage-gated inwardly rectifying potassium channel KCNH2 (Q12809 whole entry): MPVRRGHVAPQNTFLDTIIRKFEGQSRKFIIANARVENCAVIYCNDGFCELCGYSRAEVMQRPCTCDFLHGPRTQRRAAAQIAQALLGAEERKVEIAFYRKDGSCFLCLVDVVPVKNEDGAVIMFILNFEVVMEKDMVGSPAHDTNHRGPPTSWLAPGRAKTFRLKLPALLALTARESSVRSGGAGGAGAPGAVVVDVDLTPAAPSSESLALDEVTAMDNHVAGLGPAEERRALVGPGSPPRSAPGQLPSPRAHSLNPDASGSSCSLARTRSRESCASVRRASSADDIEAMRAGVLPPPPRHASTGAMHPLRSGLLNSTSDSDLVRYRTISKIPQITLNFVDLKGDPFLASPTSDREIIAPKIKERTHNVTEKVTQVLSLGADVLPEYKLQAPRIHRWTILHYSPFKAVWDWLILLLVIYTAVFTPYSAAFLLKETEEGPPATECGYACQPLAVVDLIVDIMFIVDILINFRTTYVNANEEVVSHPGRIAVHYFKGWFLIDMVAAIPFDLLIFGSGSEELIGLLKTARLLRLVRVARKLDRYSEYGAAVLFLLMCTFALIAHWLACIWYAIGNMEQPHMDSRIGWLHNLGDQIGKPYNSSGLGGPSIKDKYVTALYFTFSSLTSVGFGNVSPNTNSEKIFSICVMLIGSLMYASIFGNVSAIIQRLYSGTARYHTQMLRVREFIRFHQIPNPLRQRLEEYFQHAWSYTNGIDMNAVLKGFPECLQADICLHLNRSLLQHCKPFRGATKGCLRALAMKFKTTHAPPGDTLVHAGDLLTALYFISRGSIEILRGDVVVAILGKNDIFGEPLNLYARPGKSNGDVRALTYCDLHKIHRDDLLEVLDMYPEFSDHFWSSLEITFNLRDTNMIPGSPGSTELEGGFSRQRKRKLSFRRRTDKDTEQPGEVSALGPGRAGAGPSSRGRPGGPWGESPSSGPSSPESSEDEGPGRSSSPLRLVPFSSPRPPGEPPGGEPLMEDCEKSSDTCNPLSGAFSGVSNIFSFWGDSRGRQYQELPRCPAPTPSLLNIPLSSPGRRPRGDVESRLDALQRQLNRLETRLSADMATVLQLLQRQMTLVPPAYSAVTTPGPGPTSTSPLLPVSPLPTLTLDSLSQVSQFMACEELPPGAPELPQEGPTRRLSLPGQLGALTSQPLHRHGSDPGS

Chain of Cytochrome P450 2D6 (P10635 whole entry): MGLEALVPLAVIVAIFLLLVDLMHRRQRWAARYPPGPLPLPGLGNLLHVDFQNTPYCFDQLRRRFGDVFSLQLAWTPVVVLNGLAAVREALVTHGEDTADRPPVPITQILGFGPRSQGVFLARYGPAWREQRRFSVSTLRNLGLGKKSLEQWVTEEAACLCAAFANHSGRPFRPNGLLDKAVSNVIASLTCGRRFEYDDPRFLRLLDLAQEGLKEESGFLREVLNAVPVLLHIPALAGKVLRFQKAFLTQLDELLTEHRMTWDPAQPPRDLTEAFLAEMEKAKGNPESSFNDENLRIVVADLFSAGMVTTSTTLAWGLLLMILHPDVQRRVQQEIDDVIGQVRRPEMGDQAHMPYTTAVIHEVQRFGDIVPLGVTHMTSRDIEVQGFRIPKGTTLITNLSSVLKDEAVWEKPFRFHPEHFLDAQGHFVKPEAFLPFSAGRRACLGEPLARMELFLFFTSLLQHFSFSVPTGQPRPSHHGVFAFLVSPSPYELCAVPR
Chain of Cytochrome P450 2C19 (P33261 whole entry): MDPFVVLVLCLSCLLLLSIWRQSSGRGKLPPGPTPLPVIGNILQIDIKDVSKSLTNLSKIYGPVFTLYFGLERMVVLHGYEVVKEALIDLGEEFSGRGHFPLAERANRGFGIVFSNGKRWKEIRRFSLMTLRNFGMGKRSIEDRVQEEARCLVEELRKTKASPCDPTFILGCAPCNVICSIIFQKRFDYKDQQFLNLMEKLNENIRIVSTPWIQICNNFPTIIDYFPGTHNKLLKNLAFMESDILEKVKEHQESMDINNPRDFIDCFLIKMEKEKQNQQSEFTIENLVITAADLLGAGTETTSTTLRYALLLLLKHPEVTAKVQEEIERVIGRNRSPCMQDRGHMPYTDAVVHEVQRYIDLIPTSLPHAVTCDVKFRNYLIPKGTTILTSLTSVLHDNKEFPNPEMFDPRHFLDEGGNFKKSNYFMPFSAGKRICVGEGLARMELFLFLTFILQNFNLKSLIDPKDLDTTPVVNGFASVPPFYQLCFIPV
Chain of Cytochrome P450 3A4 (P08684 whole entry): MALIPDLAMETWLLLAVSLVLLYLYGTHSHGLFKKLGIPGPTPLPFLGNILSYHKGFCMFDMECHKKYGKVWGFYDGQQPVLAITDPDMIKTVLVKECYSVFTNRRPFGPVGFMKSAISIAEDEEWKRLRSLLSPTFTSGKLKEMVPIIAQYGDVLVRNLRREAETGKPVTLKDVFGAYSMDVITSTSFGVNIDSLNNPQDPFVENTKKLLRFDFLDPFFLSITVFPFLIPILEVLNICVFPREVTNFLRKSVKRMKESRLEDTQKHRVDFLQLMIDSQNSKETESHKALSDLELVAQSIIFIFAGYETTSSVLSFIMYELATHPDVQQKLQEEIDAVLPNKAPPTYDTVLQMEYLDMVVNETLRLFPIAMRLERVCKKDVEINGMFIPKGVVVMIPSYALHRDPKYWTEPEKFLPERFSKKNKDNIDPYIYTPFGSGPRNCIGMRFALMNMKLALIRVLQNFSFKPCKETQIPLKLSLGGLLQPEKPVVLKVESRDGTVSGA
Chain of Cytochrome P450 2C9 (P11712 whole entry): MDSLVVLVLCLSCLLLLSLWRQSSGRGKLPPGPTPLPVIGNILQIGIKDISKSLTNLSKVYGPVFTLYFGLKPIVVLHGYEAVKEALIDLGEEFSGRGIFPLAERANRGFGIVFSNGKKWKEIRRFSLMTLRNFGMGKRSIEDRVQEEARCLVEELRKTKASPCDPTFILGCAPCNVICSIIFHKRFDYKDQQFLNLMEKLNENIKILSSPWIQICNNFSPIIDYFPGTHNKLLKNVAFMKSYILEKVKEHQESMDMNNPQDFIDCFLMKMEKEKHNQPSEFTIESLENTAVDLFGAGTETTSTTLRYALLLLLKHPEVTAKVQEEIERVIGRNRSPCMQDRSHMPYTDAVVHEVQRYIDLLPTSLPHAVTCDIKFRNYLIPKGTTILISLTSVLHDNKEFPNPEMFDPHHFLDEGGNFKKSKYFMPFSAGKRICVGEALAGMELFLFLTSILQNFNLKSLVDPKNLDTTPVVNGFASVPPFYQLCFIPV

Emax at 16 h, 1 µM (PXR (NR1I2) [1]) | solubility thermodynamic at 10000 µM [2] | solubility thermodynamic [3] | Emax at 16 h, 10 µM (PXR (NR1I2) [4]) | half-life [5] | half-life [6] | INH (Cytochrome P450 1A2) | INH (Cytochrome P450 2C19) | INH (Cytochrome P450 2C8) | INH (Cytochrome P450 2C9) | INH (Cytochrome P450 2D6) | INH (Cytochrome P450 3A4) | Vd [8] | C0 [10] | half-life [11] | Cmax [12] | Tmax [13] | AUC(0-inf) [14] | half-life [15] | bioavailability [16] | SMILES | other results
21% | < 1 µM | 59 µM (≈ 35.2 µg/mL) | 34% | 44 min | 27 min | > 10 µM | > 10 µM | 1.8 µM | 3.2 µM | > 10 µM | > 10 µM | 2.1 L/kg | 1410 ng/mL | 24 min | 52 ng/mL | 48 min | 142 ng·h/mL | 186 min | 18% | CCC(C)(C)NS(=O)(=O)c1ccc(-c2sc(C(=O)N[C@H]3C[C@H](C(=O)O)C3)nc2CC2CCCCC2)c(Cl)c1C | clearance [7]: 98.8 mL/min/kg; AUC(0-inf) [9]: 170 ng·h/mL
 |  |  |  |  |  |  |  |  |  |  |  |  |  |  |  |  |  |  |  | C[C@H](NS(=O)(=O)c1ccc(-c2sc(C(=O)N[C@H]3C[C@H](C(=O)O)C3)nc2CC2CCCCC2)c2ccccc12)C(F)(F)F | Stability [17]: Stable
139% | < 1 µM | < 4 µM | 160% | 55 min | 18 min | > 10 µM | > 10 µM | > 10 µM | 1.6 µM | > 10 µM | > 10 µM | 4.8 L/kg | 518 ng/mL | 90 min | 269 ng/mL | 60 min | 1580 ng·h/mL | 180 min | 87.7% | CC(C)(C)NS(=O)(=O)c1ccc(-c2sc(C(=O)N3CC4(C3)CS(=O)(=O)C4)nc2CC2CCCCC2)c(Cl)c1Cl | clearance [7]: 42.5 mL/min/kg; AUC(0-inf) [9]: 360 ng·h/mL
18% | 13 µM (≈ 7.6 µg/mL) | 382 µM (≈ 223 µg/mL) | 102% | 61 min | 77 min | > 10 µM | > 10 µM | > 10 µM | > 10 µM | > 10 µM | > 10 µM | 1.1 L/kg | 2800 ng/mL | 18 min | 52 ng/mL | 24 min | 87 ng·h/mL | 150 min | 7.5% | CC(C)(C)NS(=O)(=O)c1ncc(-c2sc(C(=O)N[C@H]3C[C@H](C(=O)O)C3)nc2CC2CCCCC2)c2ccccc12 | AUC (Rattus norvegicus): 232 ng·h/mL
 | < 4 µM |  |  | 5.1 min | < 4 min | > 10 µM | 1.1 µM | 2.8 µM | 0.4 µM | 6.2 µM | 7.1 µM |  |  |  |  |  |  |  |  | CC(C)(C)NS(=O)(=O)c1ccc(-c2sc(C(=O)NCCN3CCOCC3)nc2CC2CCCCC2)c2ccccc12 | inhibition (INH) [18]: Not Active
